Consider 19 compounds from US20260242343A1, “COMPOUND SERVING AS DDR1 KINASE INHIBITOR, AND MEDICINE” (NIPPON SHINYAKU CO., LTD., priority 2022, published 2026).

One experiment concerns the target T1, DDR1 protein (Homo sapiens, UniProt Q08345).
T1 construct: purchased Carna Biosciences 08-113
In words: Evaluation of DDR1 kinase inhibitory activity (LANCE Ultra TR-FRET). The settings on record: DDR1 protein 0.5 nM, ATP 100 μM, 2 hours at room temperature; read-out: DDR-1 IC50. The format is biochemical. As for the experimental part:
The test was performed in duplicate.

Experiment [1] addresses T2, DDR1 kinase in DDR1-expressing U2OS cells (Homo sapiens, UniProt Q08345).
T2 construct: host or cells: U2OS
In words: DDR1 kinase inhibitory effect in DDR1-expressing U2OS cells (PathHunter, type I collagen stimulation). The class given is cell-based. The conditions noted are these: type I collagen 50 μg/mL, 10% FBS, read-out: DDR-1 IC50. The method, then:
Test compounds in DMSO were prepared at 10 mM and diluted with DMSO to final concentrations of 1000, 100, 10, 1, and 0.1 μM. These solutions were diluted further with E-MEM medium (Fujifilm Wako Pure Chemical Industries, 051-07615) containing 10% fetal bovine serum (FBS, Gibco, 10270106) to 60,000, 6,000, 600, 60, 6, and 0.6 nM to obtain test sample solutions.
DDR1-expressing U2OS cells (DiscoverX, 93-0894C3) suspended at 2.5×10^5 cells/mL in 10% FBS+E-MEM medium were seeded in 384-well plates (DiscoverX, 92-0013) in 20 μL portions and cultured overnight at 37° C. and 5% CO2.
The next day, the test sample solutions as prepared were added at 5 μL/well to final concentrations of 10,000, 1,000, 100, 10, 1, and 0.1 nM. After incubation at 37° C. and 5% CO2 for 1 hour, type I collagen (Nitta Gelatin, 631-00771) was added at 5 μL/well to a final concentration of 50 μg/mL, and cultured overnight at 37° C. and 5% CO2.
The next day, the plate was left at room temperature for 1 hour, after which 5 μL/well of detection solution was added according to the instruction manual for the PathHunter (registered trademark) Detection Kit (DiscoverX, 93-0001). […] The test was performed in duplicate.

The test system of experiment [2] is anti-glomerular basement membrane antibody-induced nephritis model. In words: In vivo efficacy study using anti-glomerular basement membrane antibody-induced nephritis model. Further details: species or system WKY/NCrlCrlj rats. The conditions noted are these: rat, 24-hour urine. As for the experimental part: The test compound was weighed and suspended in 0.5% methylcellulose (Shin-Etsu Chemical Co., Ltd.)+99.5% Otsuka distilled water (Otsuka Pharmaceutical Factory) to prepare a test sample solution for administration. 300 μL of phosphate buffered saline (Wako, 045-29795) containing 33.3 μg/mL anti-glomerular basement membrane antibody (Chondrex, 70221) was intravenously administered into the tail vein of WKY/NCrlCrlj rats (7-week-old males). 7 days after, the test sample was administered twice a day for 7 days, and the rats were moved to a metabolism/urine collection cage from the 6th to 7th days of the starting of the administration, and the 24-hour urine was collected. The weight of the collected urine was measured. 150 μL of urine was transferred to a sample cup (650-M, BMBio ST). The albumin concentration in urine was measured using a JCA-BM6050 automatic analyzer (JEOL). The amount of albumin in urine was determined with correction for the measured urine weight. The amounts of albumin in urine in the group without administration of anti-glomerular basement membrane antibody and the group with administration of vehicle were set at 0% and 100%, respectively, and the ratio of the amount of albumin in urine in the group administered with the test compound was calculated.

[3] abbreviates: dose 50 mg/kg twice a day for 7 days.

Counter-ions that a name gives are not always drawn.

T2 sequence (Q08345 19-913): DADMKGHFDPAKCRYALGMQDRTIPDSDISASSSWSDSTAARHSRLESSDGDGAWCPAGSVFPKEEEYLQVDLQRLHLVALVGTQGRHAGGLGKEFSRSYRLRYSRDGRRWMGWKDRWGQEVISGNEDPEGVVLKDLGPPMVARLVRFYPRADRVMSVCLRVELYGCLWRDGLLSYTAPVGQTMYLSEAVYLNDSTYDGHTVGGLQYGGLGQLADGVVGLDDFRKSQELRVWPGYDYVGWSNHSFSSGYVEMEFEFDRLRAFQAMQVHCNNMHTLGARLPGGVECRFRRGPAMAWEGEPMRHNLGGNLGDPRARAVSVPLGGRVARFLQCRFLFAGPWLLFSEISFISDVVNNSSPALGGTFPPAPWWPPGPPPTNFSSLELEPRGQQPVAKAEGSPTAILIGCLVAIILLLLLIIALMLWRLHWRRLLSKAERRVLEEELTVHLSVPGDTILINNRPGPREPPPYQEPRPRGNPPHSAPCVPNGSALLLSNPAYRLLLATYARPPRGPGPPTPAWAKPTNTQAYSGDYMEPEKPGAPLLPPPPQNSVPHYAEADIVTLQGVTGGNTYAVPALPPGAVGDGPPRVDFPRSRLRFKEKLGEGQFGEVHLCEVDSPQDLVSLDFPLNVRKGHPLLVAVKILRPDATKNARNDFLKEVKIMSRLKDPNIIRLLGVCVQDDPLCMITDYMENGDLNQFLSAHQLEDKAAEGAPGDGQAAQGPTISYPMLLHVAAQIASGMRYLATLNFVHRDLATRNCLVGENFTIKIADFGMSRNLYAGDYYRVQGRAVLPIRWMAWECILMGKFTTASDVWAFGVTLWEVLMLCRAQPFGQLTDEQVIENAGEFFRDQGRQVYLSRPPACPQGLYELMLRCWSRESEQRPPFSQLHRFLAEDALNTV
T1 sequence (Q08345 19-876 isoform Q08345-2 limits assumed): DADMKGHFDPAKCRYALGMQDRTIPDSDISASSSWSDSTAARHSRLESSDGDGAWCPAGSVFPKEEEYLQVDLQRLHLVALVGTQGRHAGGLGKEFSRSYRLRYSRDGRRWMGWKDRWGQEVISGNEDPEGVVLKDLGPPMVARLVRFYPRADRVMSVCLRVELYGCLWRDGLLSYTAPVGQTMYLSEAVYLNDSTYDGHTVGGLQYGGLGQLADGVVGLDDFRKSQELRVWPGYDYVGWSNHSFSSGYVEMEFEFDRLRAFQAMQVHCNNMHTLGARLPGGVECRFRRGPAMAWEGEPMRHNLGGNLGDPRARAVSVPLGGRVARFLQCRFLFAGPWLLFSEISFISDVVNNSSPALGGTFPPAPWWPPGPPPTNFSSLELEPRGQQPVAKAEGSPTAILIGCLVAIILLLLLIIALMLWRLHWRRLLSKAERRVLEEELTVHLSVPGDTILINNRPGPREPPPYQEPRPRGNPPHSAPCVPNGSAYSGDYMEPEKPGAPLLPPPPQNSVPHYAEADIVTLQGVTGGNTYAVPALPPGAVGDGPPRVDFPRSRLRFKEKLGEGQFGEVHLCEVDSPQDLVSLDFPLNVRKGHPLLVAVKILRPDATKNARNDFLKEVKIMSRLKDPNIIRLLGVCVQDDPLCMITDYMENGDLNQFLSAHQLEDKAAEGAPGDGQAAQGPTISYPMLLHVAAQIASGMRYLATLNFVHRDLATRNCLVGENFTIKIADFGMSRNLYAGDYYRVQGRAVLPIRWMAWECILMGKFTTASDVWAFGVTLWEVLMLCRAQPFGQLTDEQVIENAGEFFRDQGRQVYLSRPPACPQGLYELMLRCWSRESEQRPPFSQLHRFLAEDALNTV

On to `Nc1cnc(/C(F)=C/c2cc(C(=O)N[C@H]3C[C@H](OC(F)(F)F)C[C@@H]3O)ccc2OC(F)F)cn1` [Example 10, 3-[(1Z)-2-(5-Aminopyrazin-2-yl)-2-fluoroethenyl]-4-(difluoromethoxy)-N-[(1S,2S,4S)-2-hydroxy-4-(trifluoromethoxy)cyclopentyl]benzamide], for which the IC50 at DDR1 protein was determined as 1.2 nM; in experiment [1] it was 72 nM. In addition, in experiment [2] (dose 10 mg/kg twice a day for 7 days), the “Urinary albumin (% of vehicle-administered group)” value is reported as 69 % of vehicle-administered grou.

For `NC(=O)c1ncc2cc(-c3cc(C(=O)N[C@H]4CCCC[C@@H]4O)ccc3C(F)(F)F)ccn12` [Example 14, 7-(5-{[(1S,2S)-2-Hydroxycyclohexyl]carbamoyl}-2-(trifluoromethyl)phenyl)imidazo[1,5-a]pyridine-3-carboxamide], the figures for the 50% inhibitory concentration (IC50) (at DDR1 protein; in experiment [1]) were 2.5 nM and 83 nM, respectively. Moreover, in experiment [2] (setting [3]), the “Urinary albumin (% of vehicle-administered group)” value is listed as 76 % of vehicle-administered grou.

`Nc1cnc(C#Cc2cc(C(=O)N[C@H](CO)CCOC(F)(F)F)ccc2OC(F)F)cn1` [Example 7, 3-[2-(5-Aminopyrazin-2-yl)ethynyl]-4-(difluoromethoxy)-N-[(2S)-1-hydroxy-4-(trifluoromethoxy)butan-2-yl]benzamide]: the IC50 on DDR1 protein stood at 4.4 nM; in experiment [1], 50 nM. In addition, the “Urinary albumin (% of vehicle-administered group)” value in experiment [2] (dose 30 mg/kg twice a day for 7 days) is recorded as 69 % of vehicle-administered grou.

Turning to `COc1nc(N)ncc1C#Cc1cc(C(=O)N[C@H]2CC3(CC3)C[C@@H]2O)ccc1OC(F)F` [Example 23, 3-[2-(2-Amino-4-methoxypyrimidin-5-yl)ethynyl]-4-(difluoromethoxy)-N-[(5S,6S)-6-hydroxyspiro[2.4]heptan-5-yl]benzamide], the figures for the IC50 (on DDR1 protein; in experiment [1]) were 0.25 nM and 4.1 nM, respectively.

For `CCc1ccc(C(=O)N[C@H]2C[C@H](OC(F)(F)F)C[C@@H]2O)cc1NC(=O)c1cnc(-c2ccccc2)o1` [Example 16, N-(2-Ethyl-5-{[(1S,2S,4S)-2-hydroxy-4-(trifluoromethoxy)cyclopentyl]carbamoyl}phenyl)-2-phenyl-1,3-oxazole-5-carboxamide], the figures for the IC50 (on DDR1 protein; in experiment [1]) were 7.5 nM and 13 nM, respectively.

As for `NC(=O)c1ncc2cc(-c3cc(C(=O)N[C@H]4C[C@H](OC(F)(F)F)C[C@@H]4O)ccc3C(F)(F)F)ccn12` [Example 29, 7-(5-{[(1S,2S,4S)-2-Hydroxy-4-(trifluoromethoxy)cyclopentyl]carbamoyl}-2-(trifluoromethyl)phenyl)imidazo[1,5-a]pyridine-3-carboxamide], the IC50 amounted to 0.81 nM at DDR1 protein and 3.1 nM in experiment [1].

With `Nc1ncc(C#Cc2cc(C(=O)N[C@H](CO)c3ccccc3)ccc2OC(F)F)cn1` [Example 36, 3-[2-(2-Aminopyrimidin-5-yl)ethynyl]-4-(difluoromethoxy)-N-[(1S)-2-hydroxy-1-phenylethyl]benzamide hydrochloride], the half-inhibitory concentration (IC50) was 8.6 nM on DDR1 protein and 230 nM in experiment [1].

In the case of `CCc1ccc(C(=O)N[C@H](CO)CCOC(F)(F)F)cc1NC(=O)c1cncc(-c2cccc(F)c2)c1` [Example 32, N-(2-Ethyl-5-{[(2S)-1-hydroxy-4-(trifluoromethoxy)butan-2-yl]carbamoyl}phenyl)-5-(3-fluorophenyl)pyridine-3-carboxamide], the IC50 worked out at 26 nM at DDR1 protein and 54 nM in experiment [1].

For `Cn1cc(C#Cc2cc(C(=O)N[C@H](CO)CCOC(F)(F)F)ccc2OC(F)F)cn1` [Example 24, 4-(Difluoromethoxy)-N-[(2S)-1-hydroxy-4-(trifluoromethoxy)butan-2-yl]-3-[2-(1-methyl-1H-pyrazol-4-yl)ethynyl]benzamide], the IC50 turned out to be 36 nM on DDR1 protein and 97 nM in experiment [1].

On to `Nc1ncc(/C=C(\F)c2cc(C(=O)N[C@H]3CC4(CC4)C[C@@H]3O)ccc2OC(F)F)cn1` [Example 40, 3-[(1Z)-2-(2-Aminopyrimidin-5-yl)-1-fluoroethenyl]-4-(difluoromethoxy)-N-[(5S,6S)-6-hydroxyspiro[2.4]heptan-5-yl]benzamide], for which the IC50 at DDR1 protein was found to be 0.48 nM; in experiment [1] it was 5.6 nM.

Consider `Cn1cc(C#Cc2cc(C(=O)N[C@H]3C[C@H](OC(F)(F)F)C[C@@H]3O)ccc2OC(F)F)cn1` [Example 6, 4-(Difluoromethoxy)-N-[(1S,2S,4S)-2-hydroxy-4-(trifluoromethoxy)cyclopentyl]-3-[2-(1-methyl-1H-pyrazol-4-yl)ethynyl]benzamide], for which the IC50 was found to be 0.39 nM on DDR1 protein and 58 nM in experiment [1]. In addition, the “Urinary albumin (% of vehicle-administered group)” value in experiment [2] (dose 5 mg/kg twice a day for 7 days) is recorded as 72 % of vehicle-administered grou.

For `O=C(N[C@H]1C[C@H](OC(F)(F)F)C[C@@H]1O)c1ccc(OC(F)F)c(C#Cc2cncnc2)c1` [Example 1, 4-(Difluoromethoxy)-N-[(1S,2S,4S)-2-hydroxy-4-(trifluoromethoxy)cyclopentyl]-3-[(pyrimidin-5-yl)ethynyl]benzamide], the figures for the IC50 (on DDR1 protein; in experiment [1]) were 7 nM and 29 nM, respectively. In addition, the “Urinary albumin (% of vehicle-administered group)” value in experiment [2] (setting [3]) is reported as 70 % of vehicle-administered grou.

As for `Nc1cnc(/C(F)=C/c2cc(C(=O)N[C@H]3CC(F)(F)CC[C@@H]3O)ccc2OC(F)F)cn1` [Example 25, 3-[(1Z)-2-(5-Aminopyrazin-2-yl)-2-fluoroethenyl]-N-[(1S,2S)-5,5-difluoro-2-hydroxycyclohexyl]-4-(difluoromethoxy)benzamide], the IC50 stood at 1.7 nM on DDR1 protein and 19 nM in experiment [1].

As to `CCc1ccc(C(=O)N[C@H]2C[C@H](OC(F)(F)F)C[C@@H]2O)cc1NC(=O)c1cncc(-c2cccc(F)c2)c1` [Example 33, N-(2-Ethyl-5-{[(1S,2S,4S)-2-hydroxy-4-(trifluoromethoxy)cyclopentyl]carbamoyl}phenyl)-5-(3-fluorophenyl)pyridine-3-carboxamide], the IC50 at DDR1 protein is 1.8 nM; in experiment [1], 7.4 nM.

With `Nc1ncc(C#Cc2cc(C(=O)N[C@H]3C[C@H](OC(F)(F)F)C[C@@H]3O)ccc2OC(F)F)cn1` [Example 3, 3-[2-(2-Aminopyrimidin-5-yl)ethynyl]-4-(difluoromethoxy)-N-[(1S,2S,4S)-2-hydroxy-4-(trifluoromethoxy)cyclopentyl]benzamide], the figures for the IC50 (at DDR1 protein; in experiment [1]) were 0.86 nM and 3.6 nM, respectively. Further, the “Urinary albumin (% of vehicle-administered group)” value in experiment [2] (setting [3]) is on record as 78 % of vehicle-administered grou.

For `CCc1ccc(C(=O)N[C@H]2C[C@H](OC(F)(F)F)C[C@@H]2O)cc1NC(=O)c1cnc(NCC2CC2)s1` [Example 45, 2-[(Cyclopropylmethyl)amino]-N-(2-ethyl-5-{[(1S,2S,4S)-2-hydroxy-4-(trifluoromethoxy)cyclopentyl]carbamoyl}phenyl)-1,3-thiazole-5-carboxamide], the IC50 on DDR1 protein is 1.3 nM; in experiment [1] it was 6.8 nM.

On to `CCc1ccc(C(=O)N[C@H](CO)CCOC(F)(F)F)cc1NC(=O)c1cnc(NCC2CC2)s1` [Example 44, 2-[(Cyclopropylmethyl)amino]-N-(2-ethyl-5-{[(2S)-1-hydroxy-4-(trifluoromethoxy)butan-2-yl]carbamoyl}phenyl)-1,3-thiazole-5-carboxamide], for which the IC50 on DDR1 protein is 9.4 nM; in experiment [1], 15 nM.

Regarding `O=C(N[C@H]1CC2(CC2)C[C@@H]1O)c1ccc(OC(F)F)c(C#Cc2cncc(F)c2)c1` [Example 19, 4-(Difluoromethoxy)-3-[2-(5-fluoropyridin-3-yl)ethynyl]-N-[(5S,6S)-6-hydroxyspiro[2.4]heptan-5-yl]benzamide], the half-inhibitory concentration (IC50) came to 3.2 nM at DDR1 protein and 27 nM in experiment [1].

Turning to `CCc1ccc(C(=O)N[C@H]2C[C@H](OC(F)(F)F)C[C@@H]2O)cc1NC(=O)c1cnc(CC2CC2)s1` [Example 17, 2-(Cyclopropylmethyl)-N-(2-ethyl-5-{[(1S,2S,4S)-2-hydroxy-4-(trifluoromethoxy)cyclopentyl]carbamoyl}phenyl)-1,3-thiazole-5-carboxamide], the IC50 on DDR1 protein was determined as 1.6 nM; in experiment [1], 17 nM.
